Legend:
HCT116 cells = assay: MTT cell viability, HCT116; format: cell-based; conditions: Homo sapiens, HCT-116; 48 h, MTT assay
Description: Cells (3 × 10^3 cells/well) were seeded on a 96‐well plate, grown overnight, and then treated with compounds at indicated concentrations for 48 h. After incubation with MTT for 4 h at 37°C, cells were lysed with 150 µL of DMSO (Sigma–Aldrich, St. Louis, USA). Absorbance was measured at 570 nm on a microplate reader with the Gen5 software (v.2.03.1; BioTek, Winooski, VT, USA).

[1] = Pharmacokinetic study in rat; format: in vivo, Sprague–Dawley rats; conditions: male, Sprague-Dawley, plasma; for AUC(0-inf): read-out: AUCINF obs
Description: The stock solution of SB4 and SB5 was prepared at a concentration of 1.0 mg/mL in DMSO. Additionally, the standard solutions for SB4 and SB5 were prepared by diluting with 60% ACN (0.1% formic acid) in distilled water (DW). The final concentrations of the prepared standard solutions were 5, 10, 25, 50, 100, 250, 500, and 1000 ng/mL, and they were prepared in 1.5 mL polyethylene microtubes (Axygen Inc., Union City, CA, USA). Furthermore, quality control samples were manufactured using DMSO, with final concentrations of 15 ng/mL (low quality control), 80 ng/mL (mid quality control), and 800 ng/mL (high quality control) using 60% ACN (0.1% formic acid) in DW. The IS solution (Deucravacitinib) was also prepared in DMSO and diluted to a final concentration of 10 ng/mL in 60% ACN (0.1% formic acid) in DW.
The sample stored at −80°C was dissolved at room temperature, vortexed for 3 s, and a protein precipitation method using ACN was employed. In a 1.5 mL polyethylene microtube, 10 µL of the IS (10 ng/mL) was added to 45 µL of plasma, and 500 µL of ACN was added. Next, the sample was mixed in a vortex (M37610‐33; Barnstead International, USA) for 3 min. Then, 500 µL of the supernatant was centrifuged at 10000 g for 10 min and transferred to a LC vial, from which 10 µL was injected into the LC–MS/MS system.
The LC–MS/MS system comprises a SCIEX Triple Quad 6500+ system (Melbourne, Australia) coupled with a Shimadzu Nexera series SCL‐40 system controller, DGU‐405 degassing unit, LC‐40D X3 solvent delivery module, SIL‐40C X3 autosampler, and CTO‐40C column oven (Melbourne, Australia).
Chromatographic separations were performed using a Synergi 4 µm Hydro‐RP 80 Å, LC Column (30 × 2 mm). The mobile phase consisted of 0.1% FA in DW and ACN in 0.1% FA. The optimal flow rate was 0.5 mL/min, and the linear gradient elution profile was as follows: 0–0.5 min 20% B, 0.5–1.0 min 80% B, 1.0–2.0 min 80% B, 2.0–2.5 min 20% B, 2.5–3.0 min 20% B. The injection volume was 5 µL, and the total analysis time per sample was 3.0 min. The column oven temperature was maintained at 40°C.
The sample was ionized by an electrospray ionization source. The mass spectrometer was operated in positive ion mode with MRM scan mode for high sensitivity and selectivity. The turbo ion gas temperature was set at 400°C. To optimize the source parameters and compound parameters, a standard solution of 10 ng/mL was injected into the mass spectrometer at a rate of 7 µL/min through an infusion pump. The MRM transitions selected for quantification were m/z 375.075 to 150.100 for DA, m/z 447.113 to 415.200 for SB‐04, m/z 461.119 to 429.100 for SB‐05, and m/z 426.093 to 358.000 for the IS (Deucravacitinib). The system operating programs were Analyst software (version 1.7.2) and Chromelon.
The animal testing procedure was approved by the Animal Management Committee of Dankook University (21‐038). Seven‐week‐old male Sprague–Dawley rats (weighing 250–290 g) were purchased from Samtaco Inc. (Osan, South Korea). All rats were housed randomly in groups of four, maintained under appropriate lighting and room conditions (22 ± 2°C, relative humidity 50 ± 10%, with a 12‐h light/dark cycle). Prior to the experiments, the rats had free access to food (Samtaco Inc.) and water in their cages. The animal experiments were conducted after a minimum environmental adaptation period of 1 week. On the day of the experiments, the jugular vein of each rat was cannulated individually with polyethylene tubing (Clay Adams, Parsippany, NJ, USA) under anesthesia. The cannula was exteriorized to the dorsal side of the neck, where the cannula terminated with a long silastic tubing (Dow Corning, Midland, MI, USA). The silastic tube was covered with a wire to allow free movement of the rat. Each rat was housed individually in a rat metabolic cage (Daejong Scientific Company, Seoul, Korea) and was allowed to recover from anesthesia for 4–5 h before the study began. The rats were not restrained during the experimental period. […]

CSC221 cells = assay: Spheroid formation assay, CSC221; format: cell-based, human; conditions: for spheroid formation, cotreatment with cetuximab: CSC221, 5 µM with cetuximab 10, 25, and 50 µg/mL, 2 weeks; for spheroid formation: CSC221, up to 10 µM, 14 days, compared with TU and DA
Description: Monolayer cells were separated into single‐cell suspensions at around 70% confluence using a solution of trypsin. After that, the cells were added to N2‐supplemented DMEM/F12 that contained human basal fibroblast growth factor and human recombinant epidermal growth factor. Cells seeded at a density of 5 × 10^3 cells/well in ultra‐low attachment 24‐well plates (Corning Inc., Corning, NY, USA). After 10–14 days of culture, spheres were quantitated by inverted phase contrast microscopy. The relative sphere formation ability was calculated through the IMT iSolution software (IMT iSolution Inc., Northampton, NJ, USA) measuring the pixel intensity of the sphere area randomly in each plate.

caspase 3/7 in CRC cells = assay: Caspase-Glo 3/7 activity; format: cell-based, human; conditions: 10 µM, 48 h, relative to DMSO
Description: Caspase 3/7 activity was determined with a Caspase-Glo 3/7 assay kit (Promega). CRC cells were seeded in 96 well plates, 10000 per well cells, with media containing 2% FBS. Treatments were applied after overnight incubation, incubated for 48 hours. After treatment, Caspase-Glo reagent was added to each well and incubated in the dark for 1 hour. […] was recorded with the GloMax® Microplate Reader.

COCCCOc1c(C)c(OC(=O)c2c(C)cc(OC)c(C)c2OC)cc(C)c1C(=O)OC [SB5, 4-(Methoxycarbonyl)-3-(3-methoxypropoxy)-2,5-dimethylphenyl 2,4-dimethoxy-3,6-dimethylbenzoate]
IC50 (HCT116 cells): 4.5 µM | AUC(0-t) ([1]; IP 10 mg/kg): 108 ± 17.9 ng·h/mL | Cmax ([1]; IP 10 mg/kg): 45.63 ± 0.31 ng/mL | Tmax ([1]; IP 10 mg/kg): 0.31 ± 0.13 h | AUC(0-inf) ([1]; IP 10 mg/kg): 209 ± 32.4 ng·h/mL | AUC(0-t) ([1]; PO 10 mg/kg): 87.1 ± 11.8 ng·h/mL | Cmax ([1]; PO 10 mg/kg): 22 ± 8.01 ng/mL | Tmax ([1]; PO 10 mg/kg): 4.13 ± 2.59 h | spheroid formation, cotreatment with cetuximab (CSC221 cells): significantly reduced the adverse effects of cetuximab | spheroid formation (CSC221 cells): suppress spheroid formation more strongly than TU and DA | caspase 3/7 activity (caspase 3/7 in CRC cells): induced

COCCOc1c(C)c(OC(=O)c2c(C)cc(OC)c(C)c2OC)cc(C)c1C(=O)OC [SB4, 4-(Methoxycarbonyl)-3-(2-methoxyethoxy)-2,5-dimethylphenyl 2,4-dimethoxy-3,6-dimethylbenzoate]
IC50 (HCT116 cells): 11.7 µM | AUC(0-t) ([1]; IP 10 mg/kg): 173 ± 16.3 ng·h/mL | Cmax ([1]; IP 10 mg/kg): 60.8 ± 18.2 ng/mL | Tmax ([1]; IP 10 mg/kg): 0.31 ± 0.13 h | AUC(0-inf) ([1]; IP 10 mg/kg): 394 ± 172 ng·h/mL | AUC(0-t) ([1]; PO 10 mg/kg): 113 ± 19.2 ng·h/mL | Cmax ([1]; PO 10 mg/kg): 27.8 ± 14.7 ng/mL | Tmax ([1]; PO 10 mg/kg): 2.88 ± 2.59 h | spheroid formation, cotreatment with cetuximab (CSC221 cells): significantly reduced the adverse effects of cetuximab | spheroid formation (CSC221 cells): suppress spheroid formation more strongly than TU and DA | caspase 3/7 activity (caspase 3/7 in CRC cells): induced
